Source: patent US9382209B2, “Polymorphic forms of ivabradine hydrochloride” (CADILA HEALTHCARE LIMITED, priority 2011, dated 2016)
Blank lines part the entries; values can stand above or below the compound they belong to.

Experiments:
[1] = Storage stability of crystalline forms at 40° C./75% RH (6 months stability results); format: physicochemical; conditions: for Impurity Profile (i) Tetrahydro benzazepine / Impurity Profile (ii) (S)-methyl amino Compd. / Impurity Profile (iii) Benzocylco butane Compd. / Impurity Profile (iv) Dimer Impurity: BDL = Below Detection Limit
Description: In another general aspect, the storage stable crystalline Form-II of ivabradine hydrochloride may be characterized by at least 6 months stability results as outline in Table-III which is representative for one of the batch.
In another general aspect, the storage stable crystalline Form III of ivabradine hydrochloride may be characterized by at least 6 months stability results as outline in Table-IV which is representative for one of the batch.

[2] = Storage stability of crystalline forms at 25° C./60% RH; format: physicochemical; conditions: storage for 6 months at 25° C. and a relative humidity of 60%
[3] = 1 Month, 40° C. ± 2° C./75% ± 5% RH
[4] = 1 Month, 40° C. ± 2° C./75% ± 5% RH, listed as Form-II, hydrochloride
[5] = 2 Months, 40° C. ± 2° C./75% ± 5% RH
[6] = 2 Months, 40° C. ± 2° C./75% ± 5% RH, listed as Form-II, hydrochloride
[7] = 3 Months, 40° C. ± 2° C./75% ± 5% RH
[8] = 3 Months, 40° C. ± 2° C./75% ± 5% RH, listed as Form-II, hydrochloride
[9] = 6 Months, 40° C. ± 2° C./75% ± 5% RH
[10] = Initial, specification Not more than 0.15
[11] = 1 Month, 40° C. ± 2° C./75% ± 5% RH, listed as Form-III, hydrochloride
[12] = 2 Months, 40° C. ± 2° C./75% ± 5% RH, listed as Form-III, hydrochloride
[13] = 3 Months, 40° C. ± 2° C./75% ± 5% RH, listed as Form-III, hydrochloride

Description [1, 3]: White
Water by KF (% w/w) [1, 3]: 2.0 % w/w
Impurity Profile (i) Tetrahydro benzazepine [1, 3]: BDL
Impurity Profile (ii) (S)-methyl amino Compd. [1, 3]: BDL
Impurity Profile (iii) Benzocylco butane Compd. [1, 3]: BDL
Impurity Profile (iv) Dimer Impurity [1, 3]: BDL
Impurity Profile (v) Single Ind. [1, 4]: 0.02
Impurity Profile (vi) Total Imp. [1, 4]: 0.05
Polymorph [1, 4]: Form-II
Description [1, 5]: White
Water by KF (% w/w) [1, 5]: 2.0 % w/w
Impurity Profile (i) Tetrahydro benzazepine [1, 5]: BDL
Impurity Profile (ii) (S)-methyl amino Compd. [1, 5]: BDL
Impurity Profile (iii) Benzocylco butane Compd. [1, 5]: BDL
Impurity Profile (iv) Dimer Impurity [1, 5]: BDL
Impurity Profile (v) Single Ind. [1, 6]: 0.02
Impurity Profile (vi) Total Imp. [1, 6]: 0.03
Polymorph [1, 6]: Form-II
Description [1, 7]: White
Impurity Profile (vi) Total Imp. [1, 7]: 0.08
Water by KF (% w/w) [1, 7]: 2.1 % w/w
Impurity Profile (i) Tetrahydro benzazepine [1, 7]: BDL
Impurity Profile (ii) (S)-methyl amino Compd. [1, 7]: BDL
Impurity Profile (iii) Benzocylco butane Compd. [1, 7]: BDL
Impurity Profile (iv) Dimer Impurity [1, 7]: BDL
Impurity Profile (v) Single Ind. [1, 8]: 0.03
Polymorph [1, 8]: Form-II
Description [1, 9]: White
Impurity Profile (v) Single Ind. [1, 9]: 0.03
Impurity Profile (vi) Total Imp. [1, 9]: 0.09
Water by KF (% w/w) [1, 9]: 2.0 % w/w
Impurity Profile (i) Tetrahydro benzazepine [1, 9]: BDL
Impurity Profile (ii) (S)-methyl amino Compd. [1, 9]: BDL
Impurity Profile (iii) Benzocylco butane Compd. [1, 9]: BDL
Impurity Profile (iv) Dimer Impurity [1, 9]: BDL
Polymorph ([1]; 6 Months, 40° C. ± 2° C./75% ± 5% RH, listed as Form-II, hydrochloride): Form-II
Impurity Profile (i) Tetrahydro benzazepine [1, 10]: BDL
Impurity Profile (ii) (S)-methyl amino Compd. [1, 10]: BDL
Impurity Profile (iii) Benzocylco butane Compd. [1, 10]: BDL
Impurity Profile (iv) Dimer Impurity [1, 10]: BDL
Polymorph ([1]; Initial, listed as Form-II, hydrochloride): Form-II
Impurity Profile (v) Single Ind. [1, 10]: 0.04
Impurity Profile (vi) Total Imp. [1, 10]: 0.09
Water by KF (% w/w) ([1]; Initial, specification Not more than 4.0%): 2.1 % w/w
Description ([1]; Initial, specification White to slightly yellow powder): White
quantity of crystalline β, δ, γ, or amorphous forms after storage ([1]; storage for 6 months at 40° C. and a relative humidity of 75%): no detectable quantity
quantity of crystalline β, δ, γ, or amorphous forms after storage [2]: no detectable quantity
Compound: COc1cc2c(cc1OC)CC(=O)N(CCCN(C)C[C@H]1Cc3cc(OC)c(OC)cc31)CC2.Cl [Form II, 3-{3-{{[(7S)-3,4-dimethoxybicyclo[4.2.0]octa-1,3,5-trien-7-yl]methyl}(methyl)amino}-propyl}-7,8-dimethoxy-1,3,4,5-tetrahydro-2H-3-benzazepin-2-one hydrochloride]

Impurity Profile (v) Single Ind. [1, 11]: 0.04
Impurity Profile (vi) Total Imp. [1, 11]: 0.07
Polymorph [1, 11]: Form-III
Impurity Profile (v) Single Ind. [1, 12]: 0.03
Impurity Profile (vi) Total Imp. [1, 12]: 0.06
Polymorph [1, 12]: Form-III
Impurity Profile (v) Single Ind. [1, 13]: 0.04
Polymorph [1, 13]: Form-III
Polymorph ([1]; 6 Months, 40° C. ± 2° C./75% ± 5% RH, listed as Form-III, hydrochloride): Form-III
Polymorph ([1]; Initial, listed as Form-III, hydrochloride): Form-III
Compound: COc1cc2c(cc1OC)CC(=O)N(CCCN(C)C[C@H]1Cc3cc(OC)c(OC)cc31)CC2.Cl [Form III, 3-{3-{{[(7S)-3,4-dimethoxybicyclo[4.2.0]octa-1,3,5-trien-7-yl]methyl}(methyl)amino}-propyl}-7,8-dimethoxy-1,3,4,5-tetrahydro-2H-3-benzazepin-2-one hydrochloride]
